Assay results published in patent US7037644B1, “Means and methods for monitoring non-nucleoside reverse transcriptase inhibitor antiretroviral therapy and guiding therapeutic decisions in the treatment of HIV/AIDS” (ViroLogic, Inc., priority 1998, dated 2006).
Several values for one entry are separate records, joined by “and”; a condition that tells them apart may be missing. Equal entries are not always repeated. Entries after “also recorded” stand apart in the source; their conditions may differ.

Columns and labels:
Format in all cases: cell-based, HIV-1
G190A-RTV = assay: Phenotypic susceptibility assay (site directed mutant RTV); settings: for change in susceptibility: alanine at position 190, no other NNRTI mutations
Description: (§1) The resistance test vectors containing a functional luciferase gene cassette were constructed and host cells were transfected with the resistance test vector DNA. The resistant test vectors contained patient-derived reverse transcriptase and protease sequences that were either susceptible or resistant to the antiretroviral agents, such as nucleoside reverse transcriptase inhibitors, non-nucleoside reverse transcriptase inhibitors and protease inhibitors. The resistance test vector viral particles produced by transfecting the resistance test vector DNA into host cells, either in the presence or absence of protease inhibitors, were used to infect target host cells grown either in the absence of NRTI or NNRTI or in the presence of increasing concentrations of the drug. The amount of luciferase activity produced in infected target host cells in the presence of drug was compared to the amount of luciferase produced in infected target host cells in the absence of drug. Drug resistance was measured as the amount of drug required to inhibit by 50% the luciferase activity detected in the absence of drug (inhibitory concentration 50%, IC50). The IC50 values were determined by plotting percent drug inhibition vs. log10 drug concentration.
Host cells were seeded in 10-cm-diameter dishes and were transfected several days after plating with resistance test vector plasmid DNA and the envelope expression vector. Transfections were performed using a calcium-phosphate precipitation procedure. The cell culture media containing the DNA precipitate was replaced with fresh medium, from one to 24 hours, after transfection. Cell culture media containing resistance test vector viral particles was harvested one to four days after transfection and was passed through a […] filter before being stored at […]. HIV capsid protein (p24) levels in the harvested cell culture media were determined by an EIA method as described by the manufacturer (SIAC; Frederick, Md.). Before infection, target cells (293 and 293/T) were plated in cell culture media. Control infections were performed using cell culture media from mock transfections (no DNA) or transfections containing the resistance test vector plasmid DNA without the envelope expression plasmid. One to three or more days after infection the media was removed and cell lysis buffer (Promega) was added to each well. Cell lysates were assayed for luciferase activity (FIG. 3). The inhibitory effect of the drug was determined using the following equation: % luciferase inhibition=1−(RLUluc [drug]÷RLUluc)×100 where RLUluc [drug] is the relative light unit of luciferase activity in infected cells in the presence of drug and RLUluc is the Relative Light Unit of luciferase activity in infected cells in the absence of drug. […]

V108I-RTV = assay: as above; settings: for change in susceptibility (fold, IC50) vs wild type control RTV: V108I alone; for change in susceptibility: mutation at codon 108
Description: as §1
(§2) Host cells were seeded in 10-cm-diameter dishes and were transfected several days after plating with resistance test vector plasmid DNA and the envelope expression vector. Transfections were performed using a calcium-phosphate precipitation procedure. The cell culture media containing the DNA precipitate was replaced with fresh medium, from one to 24 hours, after transfection. Cell culture media containing resistance test vector viral particles was harvested one to four days after transfection and was passed through a […] filter before being stored at […]. HIV capsid protein (p24) levels in the harvested cell culture media were determined by an EIA method as described by the manufacturer (SIAC; Frederick, Md.). Before infection, target cells (293 and 293/T) were plated in cell culture media. Control infections were performed using cell culture media from mock transfections (no DNA) or transfections containing the resistance test vector plasmid DNA without the envelope expression plasmid. One to three or more days after infection the media was removed and cell lysis buffer (Promega) was added to each well. Cell lysates were assayed for luciferase activity (FIG. 3). The inhibitory effect of the drug was determined using the following equation: % luciferase inhibition=1−(RLUluc [drug]÷RLUluc)×100 where RLUluc [drug] is the relative light unit of luciferase activity in infected cells in the presence of drug and RLUluc is the Relative Light Unit of luciferase activity in infected cells in the absence of drug. IC50 values were obtained from the sigmoidal curves that were generated from the data by plotting the percent inhibition of luciferase activity vs. the log10 drug concentration. The drug inhibition curves are shown in (FIG. 3).
The V108I mutation was introduced into the resistance test vector using the mega-primer method for site directed mutagenesis (Sakar and Sommar, Ibid.). A resistance test vector containing the V108I mutation (V108I-RTV) was then tested using the phenotypic assay described earlier and the results were compared to those determined using a genetically defined resistance test vector that was wild type at position 108. We determined the pattern of phenotypic susceptibility to the NNRTIs, delaviridine, nevirapine and efavirenz, in the V108I-RTV.

Y188C-RTV = assay: as above; settings: Y188C alone
Description: as §1, with “Drug resistance was measured as the amount of drug required to inhibit by 50% the luciferase activity detected in the absence of drug (inhibitory concentration 50%, IC50).” left out
Host cells were seeded in 10-cm-diameter dishes and were transfected several days after plating with resistance test vector plasmid DNA and the envelope expression vector. […] HIV capsid protein (p24) levels in the harvested cell culture media were determined by an EIA method as described by the manufacturer (SIAC; Frederick, Md.). […] The inhibitory effect of the drug was determined using the following equation: % luciferase inhibition=1−(RLUluc [drug]÷RLUluc)×100 where RLUluc [drug] is the relative light unit of luciferase activity in infected cells in the presence of drug and RLUluc is the Relative Light Unit of luciferase activity in infected cells in the absence of drug. […]
The Y188C mutation was introduced into the resistance test vector using the mega-primer method for site-directed mutagenesis (Sakar and Sommar, Ibid.). […] We determined the pattern of phenotypic susceptibility to the NNRTIs., delavirdine, nevirapine and efavirenz, in the Y188C-RTV.

K103N-Y188L-RTV = assay: as above; settings: for change in susceptibility: mutations at 103 and 188
Description: as §1, §2
(§3) The mutations Y188L, L100I and K103N were introduced alone and in combinationn into resistance test vectors using the mega-primer method for site-directed mutagenesis (Sakar and Sommar, Ibid.).

L100I-K103N-Y188L-RTV = assay: as above; settings: mutations at 103 and 100 and 188
Description: as §1, §2, §3

L100I_K103N-RTV = assay: as above; settings: for change in susceptibility: mutations at 100 and 103
Description: as §1, §2, §3

[1] = tested on: RTV-1033, patient 98-1033 (RT V106A, V189L, F227L); assay: Phenotypic susceptibility assay (patient RTV); settings: patient RTV pool
Description: as §1, §2
A resistance test vector was constructed as described in Example 1 from a patient sample designated 98-1033. […]

K101E-G190A-RTV = assay: Phenotypic susceptibility assay (site directed mutant RTV); settings: for change in susceptibility (fold, IC50) vs wild type control RTV: K101E and G190A; for change in susceptibility: mutations at codons 101 and 190 (190A)
Description: as §1, §2
(§4) The K101E, K103N and G190A mutations were introduced alone and in combination into resistance test vectors using the mega-primer method for site-directed mutagenesis (Sakar and Sommar, Ibid.).

K103N-G190A-RTV = assay: as above; settings: for loss of susceptibility (fold, IC50) vs wild type control RTV: K103N and G190A; for change in susceptibility: mutations at codons 103 and 190
Description: as §1, §2, §4

G190S-RTV = assay: as above; settings: for change in susceptibility (fold, IC50) vs wild type control RTV: G190S alone, below 1 = increased susceptibility; for change in susceptibility: serine at position 190, no other NNRTI mutations
Description: as §1, §2
Resistance test vectors were constructed containing the G190S and G190A mutations. Mutations were introduced into the resistance test vector using the mega-primer PCR method for site-directed mutagenesis (Sakar and Sommar, Ibid.) Resistance test vectors containing the G190S or G190A mutations (G190S-RTV, or G190A-RTV) were tested using the phenotypic susceptibility assay and the results were compared to that of a genetically defined resistance test vector that was wild type at position G190. […]

| Structure (SMILES) | change in susceptibility (G190A-RTV) | change in susceptibility (G190A-RTV; listed as delviridine) | change in susceptibility (fold, IC50) vs wild type control RTV (V108I-RTV) | change in susceptibility (V108I-RTV) | loss of susceptibility (fold, IC50) vs wild type control RTV (Y188C-RTV) | change in susceptibility (K103N-Y188L-RTV) | change in susceptibility (L100I-K103N-Y188L-RTV) | change in susceptibility (L100I_K103N-RTV) | decrease in susceptibility (fold, IC50) [1] | change in susceptibility (fold, IC50) vs wild type control RTV (K101E-G190A-RTV) | change in susceptibility (K101E-G190A-RTV) | loss of susceptibility (fold, IC50) vs wild type control RTV (K103N-G190A-RTV) | change in susceptibility (K103N-G190A-RTV) | change in susceptibility (fold, IC50) vs wild type control RTV (G190S-RTV) | change in susceptibility (G190S-RTV) | change in susceptibility (fold, IC50) vs wild type control RTV (G190A-RTV; G190A alone) | loss of susceptibility (fold, IC50) vs wild type control RTV (K103N-Y188L-RTV; K103N and Y188L) | loss of susceptibility (fold, IC50) vs wild type control RTV (L100I_K103N-RTV; L100I and K103N) |
| --- | --- | --- | --- | --- | --- | --- | --- | --- | --- | --- | --- | --- | --- | --- | --- | --- | --- | --- |
| CC(C)Nc1cccnc1N1CCN(C(=O)c2cc3cc(NS(C)(=O)=O)ccc3[nH]2)CC1 [delavirdine] | increase | increased susceptibility | 1.3 fold | no change | 3 fold | substantial decrease | substantial decrease | substantial decrease | 30 fold | 2 fold | slight loss of susceptibility; also recorded: no change | 40 fold | slight loss of susceptibility; also recorded: moderate decrease | 0.5 fold | increase |  |  |  |
| O=C1Nc2ccc(Cl)cc2[C@@](C#CC2CC2)(C(F)(F)F)O1 [efavirenz] |  |  | 1.7 fold | no change | 20 fold | substantial decrease | substantial decrease | substantial decrease | 200 fold | 120 fold | significant decrease | 215 fold | significant decrease | 8 fold and 7.6 fold |  | 8 fold |  |  |
| Cc1ccnc2c1NC(=O)c1cccnc1N2C1CC1 [nevirapine] | decrease |  | 3 fold | slight decrease | 30 fold | substantial decrease | substantial decrease | moderate decrease | greater than 800 fold | greater than 800 fold | substantial decrease | greater than 800 fold | substantial decrease | 75 fold | decrease |  | greater than 800 fold | 70 fold |
